The values that follow come from US20100286233A1, “PERIPHERAL AND NEURAL INFLAMMATORY CROSSTALK” (University of Rochester, priority 2006, published 2010).

Where two headings read alike, the source gives them in different places.

In one assay the test system is C2C12 cell line. Description: C2C12 conversion to osteoblastic phenotype, alkaline phosphatase histochemistry. The class given is cell-based.
Assay [1] deals with avian mesenchymal limb bud cells. To be noted: cited from earlier work.
Another assay relates to growth plate. To be noted: systemic injection; cited from earlier work.
For the next assay, the system named is mice. To be noted: cited from earlier work.
A further assay deals with μ-receptor. To be noted: in vivo; cited from earlier work.
Assay [2] addresses mouse recombinant DOR-1 receptor (Mus musculus, UniProt P32300). To be noted: cited from earlier work.
The target of a further assay is μ-receptors (Homo sapiens, UniProt P35372). To be noted: cited from earlier work.
μ-receptors, sequence (P35372 whole entry): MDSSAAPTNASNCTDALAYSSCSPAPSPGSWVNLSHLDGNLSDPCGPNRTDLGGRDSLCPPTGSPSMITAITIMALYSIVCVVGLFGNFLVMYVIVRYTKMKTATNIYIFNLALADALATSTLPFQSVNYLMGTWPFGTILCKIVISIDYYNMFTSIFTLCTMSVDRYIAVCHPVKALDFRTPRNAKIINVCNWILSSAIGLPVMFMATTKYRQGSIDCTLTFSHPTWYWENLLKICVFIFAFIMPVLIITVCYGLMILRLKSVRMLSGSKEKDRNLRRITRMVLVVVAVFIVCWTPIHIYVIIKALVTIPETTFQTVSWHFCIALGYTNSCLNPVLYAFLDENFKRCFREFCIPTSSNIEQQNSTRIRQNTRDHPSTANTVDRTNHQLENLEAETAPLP
The next assay has as its target δ-receptors (Homo sapiens, UniProt P41143). To be noted: cited from earlier work.
For a further assay, the target named is κ-receptors (Homo sapiens, UniProt P41145). To be noted: cited from earlier work.
κ-receptors, sequence (P41145 whole entry): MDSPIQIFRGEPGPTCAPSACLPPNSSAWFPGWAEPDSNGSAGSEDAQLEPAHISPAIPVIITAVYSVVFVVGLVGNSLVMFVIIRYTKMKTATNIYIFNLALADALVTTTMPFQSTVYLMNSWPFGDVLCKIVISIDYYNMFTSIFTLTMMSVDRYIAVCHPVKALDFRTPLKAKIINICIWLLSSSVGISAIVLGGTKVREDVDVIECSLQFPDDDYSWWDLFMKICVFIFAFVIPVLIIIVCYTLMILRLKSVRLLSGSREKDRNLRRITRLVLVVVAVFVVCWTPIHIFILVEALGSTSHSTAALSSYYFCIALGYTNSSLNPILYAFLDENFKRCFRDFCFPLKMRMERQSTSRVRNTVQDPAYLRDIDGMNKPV
The test system of another assay is C57BL/6 mice. Description: Intracisternal IL-1β injection, brain stem IHC for GFAP and CGRP. The assay is classed as in vivo, mouse. To be noted: 2 ng in 2 μl into the cisterna magna, two days later. On the procedure:
Murine IL-1β (2 ng in 2 μl of normal saline) was injected […] in the cisterna magna of deeply anesthetized C57BL/6 mice (anesthetic: ketamine 40 mg/kg IP). Two days later, the mice were sacrificed, […] transcardially with 4% paraformaldehyde in phosphate buffered saline solution and the brain stem was harvested, frozed and cut at 18 μm thick horizontal sections which were collected on glass slides. The histology slides were then analyzed by immunohistochemistry (IHC) using antibodies raised against calcitonin gene-related peptide (CGRP; […]) and glial fibrillary acidic protein (GFAP; Dako).

Setting [3] is: MOR-1 knockout mice, disruption in exon-1.

mouse recombinant DOR-1 receptor, sequence (P32300 whole entry): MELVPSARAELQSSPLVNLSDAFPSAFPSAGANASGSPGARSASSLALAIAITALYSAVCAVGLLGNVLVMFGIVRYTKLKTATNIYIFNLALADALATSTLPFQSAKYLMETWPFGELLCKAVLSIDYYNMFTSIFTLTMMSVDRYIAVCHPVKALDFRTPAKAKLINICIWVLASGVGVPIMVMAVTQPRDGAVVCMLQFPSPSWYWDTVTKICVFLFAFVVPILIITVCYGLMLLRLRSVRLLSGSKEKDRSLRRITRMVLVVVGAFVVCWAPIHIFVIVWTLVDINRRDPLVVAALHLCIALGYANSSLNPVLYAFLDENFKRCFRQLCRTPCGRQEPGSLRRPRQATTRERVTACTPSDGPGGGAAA
δ-receptors, sequence (P41143 whole entry): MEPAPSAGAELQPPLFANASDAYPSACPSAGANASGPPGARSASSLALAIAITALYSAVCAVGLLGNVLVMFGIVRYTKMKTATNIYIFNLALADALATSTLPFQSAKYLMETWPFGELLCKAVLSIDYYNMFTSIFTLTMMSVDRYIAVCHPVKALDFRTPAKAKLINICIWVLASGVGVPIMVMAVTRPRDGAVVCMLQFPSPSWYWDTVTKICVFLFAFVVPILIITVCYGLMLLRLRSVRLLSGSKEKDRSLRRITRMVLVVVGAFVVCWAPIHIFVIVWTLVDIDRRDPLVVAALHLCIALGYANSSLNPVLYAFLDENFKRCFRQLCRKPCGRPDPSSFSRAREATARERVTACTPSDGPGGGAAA
Protocol for C2C12 cell line: In vitro studies: The C2C12 cell line, an in vitro model of chondrocyte differentiation and maturation, was obtained from ATCC and cultured in DMEM plus 10% normal bovine serum for 4 days as previously described (Katagiri, T., et al. 1994). In addition, cells were treated with BMP-2 (300 ng/mL) or alternatively with BMP-2 plus PGE2 (10^−8M) or recombinant IL-1β (10 ng/mL) or butaprost (10^−8M) in the culture medium. At the end of the experiment, cells were fixed with 10% formalin. Alkaline phosphatase expression was evaluated using the BCIP/NBT histochemistry method (Vector Labs, Burlingame Calif.). Positively-stained cells were counted in 10 random 20× fields using an inverted Olympus CK41 microscope.

As for `CCCCC[C@H](O)/C=C/[C@H]1[C@H](O)CC(=O)[C@@H]1C/C=C\CCCC(=O)O` [PGE2, prostaglandin E2], the “increase in the number of cells expressing alkaline phosphatase” value with C2C12 cell line (BMP-2 plus PGE2 (10^-8M), 4 days, versus BMP-2) is on record as “approximately 5 fold”. In addition, the “conversion of differentiating C2C12 cells to an osteoblastic phenotype” value with C2C12 cell line (under the stimulus of BMP-2) is given as “acceleration of their conversion to an osteoblastic phenotype”. In addition, the values for the chondrogenesis entry in [1] and in [1] (in the presence of indomethacin) were “enhances chondrogenesis” and “stimulates chondrogenesis”, respectively. Moreover, the “growth plate and limb growth” value with growth plate was “thinner growth plate with decreased size of hypertrophic chondrocytes and reduced limb growth”.

With `CC(=O)Oc1ccc2c3c1O[C@H]1[C@@H](OC(C)=O)C=C[C@H]4[C@@H](C2)N(C)CC[C@@]341` [heroin], the values for the antinociception entry in the assay with mice (setting [3]) and in the assay with mice (mice of the CXBX strain) were “still produce antinociception” and “potently antinociceptive”, respectively.

In the case of `COc1ccc2c(c1)c(CC(=O)O)c(C)n2C(=O)c1ccc(Cl)cc1` [indomethacin], in assay [1], the chondrogenesis result is recorded as “inhibit chondrogenesis”.

For `CN1CC[C@]23c4c5ccc(O)c4O[C@H]2[C@@H](O[C@@H]2O[C@H](C(=O)O)[C@@H](O)[C@H](O)[C@H]2O)C=C[C@H]3[C@H]1C5` [morphine-6b-glucuronide], the results for the antinociception result in the assay on mice (setting [3]) and in the assay on mice (mice of the CXBX strain) were “still produce antinociception” and “potently antinociceptive”, respectively.

As to `CN1CC[C@]23c4c5ccc(O)c4O[C@H]2[C@@H](O)C=C[C@H]3[C@H]1C5` [morphine], the antinociception entry is given as “not” in the assay with mice (setting [3]) and “poor antinociceptive agent” in the assay with mice (mice of the CXBX strain).

As to `C=CCN1CC[C@]23c4c5ccc(O)c4O[C@H]2/C(=N\N)CC[C@@]3(O)[C@H]1C5` [naloxazone], in the assay with μ-receptor, the “induction of morphine dependence” value was “did not block”, the morphine-induced antinociception result is recorded as “selectively blocked” and the morphine-induced respiratory depression entry was “did not block”.

For the molecule `Oc1ccc2c3c1O[C@H]1c4oc5ccccc5c4C[C@@]4(O)[C@@H](C2)N(CC2CC2)CC[C@]314` [naltriben, Naltriben], the “displacement of [3H]-diprenorphine binding” value in [2] is given as “more highly displaced by naltriben than BNTX”.

Regarding “β-endorphin: endogenous opioid peptide from pro-opiomelanocortin, SEQ ID NO: 129”, in the assay with μ-receptors, the “affinity for μ-receptors” value was “equiactive at μ- and δ-receptors”. In addition, in the assay with δ-receptors, the “affinity for δ-receptors” value was “equiactive at μ- and δ-receptors”. In the assay with κ-receptors, the “affinity for κ-receptors” value is reported as “much lower affinity”.

B1: IL-1β: murine interleukin-1β cytokine injected into the cisterna magna (protein, UniProt P10749 118-269, looked up)
Interleukin-1 beta: VPIRQLHYRLRDEQQKSLVLSDPYELKALHLNGQNINQQVIFSMSFVQGEPSNDKIPVALGLKGKNLYLSCVMKDGTPTLQLESVDPKQYPKKKMEKRFVFNKIEVKSKVEFESAEFPNWYISTSQAEHKPVFLGNNSGQDIIDFTMESVSS
As to B1, in the assay with C57BL/6 mice, the “expression of CGRP in the descending trigeminal nucleus (medullary dorsal horn)” value is on record as “induced” and the “expression of GFAP in the descending trigeminal nucleus (medullary dorsal horn)” value was “induced”.
